Source: ChEMBL document CHEMBL1201862, “PubChem BioAssay data set” (2004)
Active and inactive are the calls of the source.

How the values were obtained:
[1] = decrease of insulin promoter-GFP reporter – imaging, high-content screening, mouse beta cells (AID 1628); type: functional; details: MIN6
[2] = molecular target: T1, Neuropeptide Y receptor type 2 (Homo sapiens, UniProt P49146); assay: IC50 for human NPY-Y2 blockade – cell-based, counter-screen for NPY-Y1 antagonist project, dose response (AID 1278); type: functional
T1 sequence (P49146 whole entry): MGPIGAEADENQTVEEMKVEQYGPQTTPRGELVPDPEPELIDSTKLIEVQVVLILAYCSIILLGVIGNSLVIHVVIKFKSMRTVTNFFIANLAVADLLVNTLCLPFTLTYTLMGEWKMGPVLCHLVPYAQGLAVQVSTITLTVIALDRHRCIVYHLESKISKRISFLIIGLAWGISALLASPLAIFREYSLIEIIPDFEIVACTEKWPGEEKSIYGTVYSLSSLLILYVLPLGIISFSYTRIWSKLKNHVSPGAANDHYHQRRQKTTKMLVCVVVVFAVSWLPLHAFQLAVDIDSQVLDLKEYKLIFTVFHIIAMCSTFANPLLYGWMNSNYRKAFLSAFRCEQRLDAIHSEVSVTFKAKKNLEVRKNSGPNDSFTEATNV

[3] = MIN6 cell viability loss – mouse insulinoma, cytotoxicity control, dose response (AID 2122); type: functional;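 further: confirmatory high-throughput counterscreen run to flag cytotoxic compounds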
[4] = molecular target: T2, Neuropeptide Y receptor type 1 (Homo sapiens, UniProt P25929); assay: IC50 of human NPY-Y1 blockers – cell-based, dose response (AID 1277); type: functional
T2 sequence (P25929 whole entry): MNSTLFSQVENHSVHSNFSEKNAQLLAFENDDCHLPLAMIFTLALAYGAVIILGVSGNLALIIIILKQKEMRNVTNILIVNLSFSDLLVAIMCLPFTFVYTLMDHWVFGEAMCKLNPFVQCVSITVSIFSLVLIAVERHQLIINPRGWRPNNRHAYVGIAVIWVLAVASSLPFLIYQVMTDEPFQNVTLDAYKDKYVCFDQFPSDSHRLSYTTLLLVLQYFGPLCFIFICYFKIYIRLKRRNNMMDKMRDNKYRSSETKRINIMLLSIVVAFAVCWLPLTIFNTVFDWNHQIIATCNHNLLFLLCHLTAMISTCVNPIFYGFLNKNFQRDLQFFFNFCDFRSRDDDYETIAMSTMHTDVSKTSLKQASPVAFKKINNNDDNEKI

[5] = test system: INS1; assay: INS-1E survival protection against cytokine death – cell-based, luminescence, retest, dose response (AID 449756); type: functional;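 further: cell death triggered by IL-1 beta plus TNF-alpha plus IFN-gamma mixture; protective hits raise ATP signal compared with cytokine alone wells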
[6] = molecular target: Protein Wnt-3a (Mus musculus, UniProt P27467); assay: antagonism of Wnt3a pathway luciferase reporter – Wnt-LIGHT cells, luminescence, selectivity assay for Gli-SUFU antagonist project, dose response (AID 651570); type: functional; details: read-out: IC50_Mean;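 further: Wnt-LIGHT reporter cells stimulated with conditioned medium from Wnt3a-producing cells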
[7] = molecular target: T3, Galanin receptor type 3 (Homo sapiens, UniProt O60755); assay: Fluorescence-based cell-based primary high throughput dose response assay to identify antagonists of the Galanin Receptor 3 (GalR3).; type: functional
T3 sequence (O60755 whole entry): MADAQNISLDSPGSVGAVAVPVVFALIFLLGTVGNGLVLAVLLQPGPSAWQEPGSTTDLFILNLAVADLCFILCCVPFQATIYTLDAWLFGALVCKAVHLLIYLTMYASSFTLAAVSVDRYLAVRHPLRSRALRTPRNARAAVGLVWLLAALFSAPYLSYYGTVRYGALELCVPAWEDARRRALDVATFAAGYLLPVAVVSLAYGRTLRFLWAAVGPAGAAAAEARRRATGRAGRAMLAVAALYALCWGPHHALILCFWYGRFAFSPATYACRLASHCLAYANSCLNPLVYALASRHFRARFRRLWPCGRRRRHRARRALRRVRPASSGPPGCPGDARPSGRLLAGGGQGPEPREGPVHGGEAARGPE

[8] = cells; type: functional, cell-based; details: HEK-CNG
[9] = molecular target: T4, COUP transcription factor 2 (Homo sapiens, UniProt P24468); assay: Luminescence-based cell-based high throughput dose response assay to identify inhibitors of COUP-TFII (NR2F2).; type: functional;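 further: HEK293 cells transiently cotransfected with COUP-TFII expression vector and reporter; luciferase reporter luminescence driven by COUP-TFII from the pX2-168 reporter plasmid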
T4 sequence (P24468 whole entry): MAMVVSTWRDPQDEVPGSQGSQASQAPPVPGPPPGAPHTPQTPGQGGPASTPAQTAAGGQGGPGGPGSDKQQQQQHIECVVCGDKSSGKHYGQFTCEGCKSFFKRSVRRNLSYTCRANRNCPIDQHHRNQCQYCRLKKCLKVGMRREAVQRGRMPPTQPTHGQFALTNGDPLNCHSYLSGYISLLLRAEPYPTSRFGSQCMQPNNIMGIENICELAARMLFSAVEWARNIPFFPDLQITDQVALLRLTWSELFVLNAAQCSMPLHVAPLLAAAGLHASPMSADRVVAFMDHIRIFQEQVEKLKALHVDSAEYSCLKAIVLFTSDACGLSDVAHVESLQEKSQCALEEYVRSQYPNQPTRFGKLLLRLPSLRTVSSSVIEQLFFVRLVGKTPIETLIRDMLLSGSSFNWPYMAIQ

[10] = molecular target: T2, Neuropeptide Y receptor type 1; type: functional
[11] = molecular target: T1, Neuropeptide Y receptor type 2; type: functional, cell-based
[12] = molecular target: Ion channel NompC (Danio rerio, UniProt Q7T1G6); assay: Dose response cell-based high-throughput screening assay for agonists of the transient receptor potential channel N1 (TRPN1). [Related pubchem assays (depositor defined):AID1424, AID1448]; type: functional
[13] = molecular target: T5, Mucolipin-3 (Homo sapiens, UniProt Q8TDD5); assay: Fluorescence counterscreen assay for […] agonists: dose response cell-based high-throughput screening assay to identify agonists of the transient receptor potential channel ML3 (TRPML3). [Related pubchem assays: 1424, 1448 ]; type: functional
T5 sequence (Q8TDD5 whole entry): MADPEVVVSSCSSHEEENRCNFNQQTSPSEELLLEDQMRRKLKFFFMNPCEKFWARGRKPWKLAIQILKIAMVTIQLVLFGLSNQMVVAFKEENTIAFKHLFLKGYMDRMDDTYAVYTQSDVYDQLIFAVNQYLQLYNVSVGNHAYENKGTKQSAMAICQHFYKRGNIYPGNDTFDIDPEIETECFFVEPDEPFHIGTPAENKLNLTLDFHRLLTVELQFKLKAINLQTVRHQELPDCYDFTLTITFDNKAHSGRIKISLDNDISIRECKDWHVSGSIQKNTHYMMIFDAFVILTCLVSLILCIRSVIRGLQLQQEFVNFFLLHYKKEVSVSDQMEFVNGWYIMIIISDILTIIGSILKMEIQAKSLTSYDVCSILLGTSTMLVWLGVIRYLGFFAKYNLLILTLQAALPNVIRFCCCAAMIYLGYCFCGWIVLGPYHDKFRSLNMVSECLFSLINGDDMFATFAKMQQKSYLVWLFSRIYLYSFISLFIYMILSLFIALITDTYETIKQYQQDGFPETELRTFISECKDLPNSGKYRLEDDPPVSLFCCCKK

[14] = mitochondrial function rescue without frataxin homolog – Friedreich's ataxia, plus single-dose screen, dose response (AID 1465); type: functional;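 further: yeast depleted of Yfh1p frataxin homolog grown on glycerol needing respiration; WST-1 tetrazolium dye reduction as measure of cellular dehydrogenase metabolic activity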
[15] = molecular target: Troponin, cardiac muscle (Homo sapiens, UniProt P19429+P45379+P63316); assay: Fluorescence-based biochemical high throughput dose response assay for activators of the calcium sensitivity of cardiac Regulated Thin Filaments (RTF). [Related pubchem assays (depositor defined):AID493008, AID493018, AID504382, AID504383]; type: protein-complex assay
[16] = molecular target: Luciferin 4-monooxygenase (Photinus pyralis, UniProt P08659); assay: Counter Screen for Luciferase-based Assay Positives. [Related pubchem assays: 620, 618, 411 ]
[17] = Luminescence-based counterscreen assay for KLF5 inhibitors: dose response cell-based high throughput screening assay to identify cytotoxic compounds using the IEC-6 intestinal epithelial cell line. [Related pubchem assays: 1700 (Primary screen.), 1834 (Confirmation screen.), 1858 (Summary AID.), 1905 (Counterscreen.)]; type: functional
[18] = test system: HT-1080; assay: HT1080 cell viability loss – fluorescence readout (AID 620); type: functional, cell-based; details: Homo sapiens

Chain of Ion channel NompC (Q7T1G6 whole entry): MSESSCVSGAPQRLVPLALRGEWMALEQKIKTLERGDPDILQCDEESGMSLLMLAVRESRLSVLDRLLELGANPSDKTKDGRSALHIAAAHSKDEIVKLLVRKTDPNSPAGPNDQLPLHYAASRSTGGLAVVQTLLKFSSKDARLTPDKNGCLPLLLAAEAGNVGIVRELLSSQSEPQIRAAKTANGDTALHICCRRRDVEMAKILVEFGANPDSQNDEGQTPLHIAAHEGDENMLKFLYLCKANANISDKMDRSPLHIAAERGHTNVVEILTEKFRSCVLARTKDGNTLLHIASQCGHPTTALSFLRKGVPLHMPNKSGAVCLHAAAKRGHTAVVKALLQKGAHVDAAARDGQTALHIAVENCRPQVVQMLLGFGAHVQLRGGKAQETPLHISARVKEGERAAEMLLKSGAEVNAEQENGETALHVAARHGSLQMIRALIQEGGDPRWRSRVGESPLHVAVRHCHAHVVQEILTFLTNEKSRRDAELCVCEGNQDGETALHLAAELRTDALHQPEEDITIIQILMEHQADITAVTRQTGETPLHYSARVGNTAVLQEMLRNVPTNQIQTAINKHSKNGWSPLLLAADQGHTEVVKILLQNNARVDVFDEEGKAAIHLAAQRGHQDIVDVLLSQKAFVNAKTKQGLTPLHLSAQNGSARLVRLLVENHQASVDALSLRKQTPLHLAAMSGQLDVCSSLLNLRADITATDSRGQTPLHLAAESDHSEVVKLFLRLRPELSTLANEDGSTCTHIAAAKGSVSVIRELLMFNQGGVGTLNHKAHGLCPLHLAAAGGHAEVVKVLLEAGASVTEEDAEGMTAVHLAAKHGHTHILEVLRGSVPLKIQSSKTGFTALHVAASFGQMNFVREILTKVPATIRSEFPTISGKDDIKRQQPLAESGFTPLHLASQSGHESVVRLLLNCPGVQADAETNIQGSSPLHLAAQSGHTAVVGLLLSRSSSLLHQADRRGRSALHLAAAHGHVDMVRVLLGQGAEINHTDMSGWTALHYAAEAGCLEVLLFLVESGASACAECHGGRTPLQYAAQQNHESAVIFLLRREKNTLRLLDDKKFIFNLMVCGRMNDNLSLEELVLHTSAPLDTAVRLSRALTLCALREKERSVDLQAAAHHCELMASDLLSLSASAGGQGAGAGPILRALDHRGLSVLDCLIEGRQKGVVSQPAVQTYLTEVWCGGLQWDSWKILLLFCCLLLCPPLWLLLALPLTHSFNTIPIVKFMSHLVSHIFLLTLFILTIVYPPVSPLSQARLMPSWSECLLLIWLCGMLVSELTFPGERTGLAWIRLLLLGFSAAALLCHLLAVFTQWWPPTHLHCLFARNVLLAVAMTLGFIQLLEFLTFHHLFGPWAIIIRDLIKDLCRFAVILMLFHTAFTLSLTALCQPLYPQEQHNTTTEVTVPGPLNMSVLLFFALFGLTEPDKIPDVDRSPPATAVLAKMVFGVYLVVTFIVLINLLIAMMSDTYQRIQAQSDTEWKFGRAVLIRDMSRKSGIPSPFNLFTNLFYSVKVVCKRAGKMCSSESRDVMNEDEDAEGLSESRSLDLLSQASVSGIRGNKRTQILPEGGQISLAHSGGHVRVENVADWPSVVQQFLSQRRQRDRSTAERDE
Chain of Protein Wnt-3a (P27467 whole entry): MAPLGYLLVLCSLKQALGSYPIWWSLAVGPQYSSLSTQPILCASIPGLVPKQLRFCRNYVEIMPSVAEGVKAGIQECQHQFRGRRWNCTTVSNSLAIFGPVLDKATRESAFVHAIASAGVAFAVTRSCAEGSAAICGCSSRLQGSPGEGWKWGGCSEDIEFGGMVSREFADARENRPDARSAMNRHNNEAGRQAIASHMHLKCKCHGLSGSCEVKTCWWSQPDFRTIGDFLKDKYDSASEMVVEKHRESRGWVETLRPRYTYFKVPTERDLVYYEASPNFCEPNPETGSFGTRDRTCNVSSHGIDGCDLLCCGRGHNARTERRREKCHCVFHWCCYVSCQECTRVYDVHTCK
Chain of Luciferin 4-monooxygenase (P08659 whole entry): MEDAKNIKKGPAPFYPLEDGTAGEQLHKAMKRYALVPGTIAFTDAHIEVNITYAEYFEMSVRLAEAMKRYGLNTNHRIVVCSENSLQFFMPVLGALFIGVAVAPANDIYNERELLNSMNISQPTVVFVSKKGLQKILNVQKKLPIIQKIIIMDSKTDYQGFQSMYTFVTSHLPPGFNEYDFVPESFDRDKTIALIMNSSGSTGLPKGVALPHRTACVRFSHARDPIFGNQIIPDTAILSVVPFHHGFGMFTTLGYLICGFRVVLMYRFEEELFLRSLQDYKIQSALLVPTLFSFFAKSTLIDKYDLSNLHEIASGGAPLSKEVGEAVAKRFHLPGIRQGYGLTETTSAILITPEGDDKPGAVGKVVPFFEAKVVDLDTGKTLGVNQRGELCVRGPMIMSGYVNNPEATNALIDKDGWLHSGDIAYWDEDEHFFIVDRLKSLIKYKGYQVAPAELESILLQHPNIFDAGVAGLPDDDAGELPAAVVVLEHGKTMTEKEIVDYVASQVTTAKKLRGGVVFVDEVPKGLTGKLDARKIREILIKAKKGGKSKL

In the case of `COc1ccccc1-n1c(-c2ccccc2)c[n+]2c1CCc1ccccc1-2`, the IC50 [1] is reported as 0.548 µM (active), the IC50 [2] is reported as 11.6 µM (not active) and the IC50 [3] is reported as 0.266 µM (active). For the same compound, the IC50 [4] was 8.77 µM (active), the AC50 ([5]; Rattus norvegicus, INS1) was 2.31 µM (active) and the AC50 ([5]; ins1) was 3.62 µM (active). The IC50 [6] was 6.31 µM (active), the IC50 [7] was > 1.11 µM (active) and the EC50 [8] was > 29.9 µM (inactive). The IC50 [9] was 6.73 µM (active).

In the case of `COC(=O)c1cc(Cl)c(NC(=O)c2ccc(C(C)(C)C)cc2)cc1OC`, the IC50 [10] is reported as 5.31 µM (active) and the IC50 [11] is reported as 4.32 µM (active).

In the case of `CN1CCS/C1=C/C=C1\SC(=S)N(CC(=O)O)C1=O`, the EC50 [12] is reported as 5.92 µM (active), the EC50 [13] is reported as 12.2 µM (not active) and the EC50 [14] is reported as > 100 µM (active). For the same compound, the EC50 [15] was 0.87 µM (active).

In the case of `O=C(Nc1nccs1)c1cc2c(s1)CCCCC2`, the EC50 [16] is reported as 8.26 µM (active), the IC50 [17] is reported as 33.2 µM (not active) and the EC50 [18] is reported as > 50 µM (not active).
